The text below walks through data of US8461160B2, “Dihydropyrimidinones” (Hoffmann-La Roche, Inc., priority 2009, dated 2013).

The test addresses T1, BACE2 (Homo sapiens, UniProt Q9Y5Z0).
T1 construct: BACE2 enzyme ectodomain (derived from plasmid “pET17b-T7-hu proBACE2”) was prepared as described in Ostermann et al; T7 tag (N); made in house
T1 sequence (Q9Y5Z0 21-473 limits assumed): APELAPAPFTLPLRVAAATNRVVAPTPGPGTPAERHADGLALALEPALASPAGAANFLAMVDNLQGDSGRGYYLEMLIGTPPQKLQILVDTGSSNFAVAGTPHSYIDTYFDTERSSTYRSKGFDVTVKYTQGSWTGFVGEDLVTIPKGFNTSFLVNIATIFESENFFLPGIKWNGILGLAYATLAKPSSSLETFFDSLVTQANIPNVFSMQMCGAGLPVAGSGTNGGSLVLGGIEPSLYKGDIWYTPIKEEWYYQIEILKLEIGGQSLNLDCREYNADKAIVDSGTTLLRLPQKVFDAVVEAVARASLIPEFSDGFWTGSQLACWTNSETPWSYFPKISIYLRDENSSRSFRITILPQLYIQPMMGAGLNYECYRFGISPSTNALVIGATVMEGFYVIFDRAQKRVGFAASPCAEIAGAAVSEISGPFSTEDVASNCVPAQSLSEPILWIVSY
Nature of the test: Fluorescent-peptide cleavage assay for BACE2 inhibition. The class given is biochemical. The settings on record: BACE2 enzyme ectodomain, fluorescent peptide WS EVNLD AEFRC-MR121, assay buffer pH 4.5, room temperature. An outline of the steps: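 Pro-enzyme BACE2 was activated at 80 nM for 1 h at room temperature in 100 mM Na-acetate, 20 mM EDTA, 0.05% BSA, pH 4.5, then preincubated 10 min with compound. IC50 from sigmoidal dose-response fit.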

In general, IC50 refers to the concentration that gives 50% inhibition. A high value points to a need for much substance. For the compound `CN1C(=O)C[C@@](C)(c2cccc(NC(=O)c3ccc(C#N)cn3)c2)N=C1N` [Example 15, 5-Cyano-pyridine-2-carboxylic acid [3-((S)-2-amino-1,4-dimethyl-6-oxo-1,4,5,6-tetrahydro-pyrimidin-4-yl)-phenyl]amide], inhibition was half-maximal at 10 nM (IC50). `CN1C(=O)C[C@@](C)(c2cccc(NC(=O)c3coc(-c4ccccc4)n3)c2)N=C1N` [Example 71, 2-Phenyl-oxazole-4-carboxylic acid [3-((S)-2-amino-1,4-dimethyl-6-oxo-1,4,5,6-tetrahydro-pyrimidin-4-yl)-phenyl]-amide] gave an IC50 of 1310 nM. Consider `CN1C(=O)C(C)(C)[C@@](C)(c2cc(NC(=O)c3ncc(Cl)cn3)ccc2F)N=C1N` [Example 106, 5-Chloro-pyrimidine-2-carboxylic acid [3-((S)-2-amino-1,4,5,5-tetramethyl-6-oxo-1,4,5,6-tetrahydro-pyrimidin-4-yl)-4-fluoro-phenyl]amide], for which the IC50 is 28 nM. The compound `CN1C(=O)C(C)(C)[C@@](C)(c2cc(NC(=O)c3ccccn3)ccc2F)N=C1N` [Example 100, Pyridine-2-carboxylic acid [3-((S)-2-amino-1,4,5,5-tetramethyl-6-oxo-1,4,5,6-tetrahydro-pyrimidin-4-yl)-4-fluoro-phenyl]amide] returned an IC50 of 43 nM. Then `Cc1ccc(C(=O)Nc2cccc([C@]3(C)CC(=O)N(C)C(N)=N3)c2)nc1` [Example 12, 5-Methyl-pyridine-2-carboxylic acid [3-((S)-2-amino-1,4-dimethyl-6-oxo-1,4,5,6-tetrahydro-pyrimidin-4-yl)-phenyl]amide], with 37 nM; and `CCN1C(=O)C[C@@](C)(c2cccc(NC(=O)c3ccc(Cl)cn3)c2)N=C1N` [Example 49, 5-Chloro-pyridine-2-carboxylic acid [3-((S)-2-amino-1-ethyl-4-methyl-6-oxo-1,4,5,6-tetrahydro-pyrimidin-4-yl)-phenyl]amide], with 15 nM. `CC[C@@]1(c2cccc(NC(=O)c3ccc(F)cn3)c2)CC(=O)N(C)C(N)=N1` [Example 85, 5-Fluoro-pyridine-2-carboxylic acid [3-((S)-2-amino-4-ethyl-1-methyl-6-oxo-1,4,5,6-tetrahydro-pyrimidin-4-yl)-phenyl]-amide] had an IC50 of 300 nM. With `CN1C(=O)C[C@@](C)(c2cccc(NC(=O)c3ccc(CO)cn3)c2)N=C1N` [Example 16, 5-Hydroxymethyl-pyridine-2-carboxylic acid [3-((S)-2-amino-1,4-dimethyl-6-oxo-1,4,5,6-tetrahydro-pyrimidin-4-yl)-phenyl]amide], the midpoint of inhibition, the IC50, lay at 458 nM. For the compound `CN1C(=O)C[C@@](C)(c2cccc(NC(=O)c3cc(Cl)ccn3)c2)N=C1N` [Example 29, 4-Chloro-pyridine-2-carboxylic acid [3-((S)-2-amino-1,4-dimethyl-6-oxo-1,4,5,6-tetrahydro-pyrimidin-4-yl)-phenyl]-amide], it took 48 nM to reach half-maximal inhibition (IC50). Take `Cc1cc(C(=O)Nc2cccc([C@]3(C)CC(=O)N(C)C(N)=N3)c2)n(C)n1` [Example 8, 2,5-Dimethyl-2H-pyrazole-3-carboxylic acid [3-((S)-2-amino-1,4-dimethyl-6-oxo-1,4,5,6-tetrahydro-pyrimidin-4-yl)-phenyl]amide]: the IC50 amounted to 126 nM. Regarding `CCC[C@@]1(c2cccc(NC(=O)c3ccc(Cl)cn3)c2)CC(=O)N(C)C(N)=N1` [Example 87, 5-Chloro-pyridine-2-carboxylic acid [3-((S)-2-amino-1-methyl-6-oxo-4-propyl-1,4,5,6-tetrahydro-pyrimidin-4-yl)-phenyl]-amide], the IC50 was 170 nM. The compound `CN1C(=O)C[C@@](C)(c2ccc(F)c(NC(=O)c3ccc(Cl)cn3)c2)N=C1N` [Example 125, 5-Chloro-pyridine-2-carboxylic acid [5-((S)-2-amino-1,4-dimethyl-6-oxo-1,4,5,6-tetrahydro-pyrimidin-4-yl)-2-fluoro-phenyl]amide] showed an IC50 of 310 nM. On to `CN1C(=O)C(C)(C)[C@@](C)(c2cc(NC(=O)c3ncco3)ccc2F)N=C1N` [Example 117, Oxazole-2-carboxylic acid [3-((S)-2-amino-1,4,5,5-tetramethyl-6-oxo-1,4,5,6-tetrahydro-pyrimidin-4-yl)-4-fluoro-phenyl]amide], for which the IC50 was 230 nM. The compound `CN1C(=O)C(C)(C)[C@@](C)(c2cccc(NC(=O)c3ncccc3-c3ccccc3Cl)c2)N=C1N` [Example 97, 3-(2-Chloro-phenyl)-pyridine-2-carboxylic acid [3-((R)-2-amino-1,4,5,5-tetramethyl-6-oxo-1,4,5,6-tetrahydro-pyrimidin-4-yl)-phenyl]amide] registered an IC50 of 180 nM. Then `CN1C(=O)C(OCc2ccccc2)[C@@](C)(c2cc(NC(=O)c3ccc(Cl)cn3)ccc2F)N=C1N` (stereo partly drawn) [Example 122, 5-Chloro-pyridine-2-carboxylic acid [3-((R)-2-amino-5-benzyloxy-1,4-dimethyl-6-oxo-1,4,5,6-tetrahydro-pyrimidin-4-yl)-4-fluoro-phenyl]amide], with 10 nM; and `CN1C(=O)C[C@@](C)(c2cccc(NC(=O)c3c[nH]c(=O)cn3)c2)N=C1N` [Example 36, 5-Oxo-4,5-dihydro-pyrazine-2-carboxylic acid [3-((S)-2-amino-1,4-dimethyl-6-oxo-1,4,5,6-tetrahydro-pyrimidin-4-yl)-phenyl]-amide], with 42 nM.

In turn, `CN1C(=O)C(C)(C)[C@@](C)(c2cccc(NC(=O)c3nccc4ccsc34)c2)N=C1N` [Example 96, Thieno[2,3-c]pyridine-7-carboxylic acid [3-((R)-2-amino-1,4,5,5-tetramethyl-6-oxo-1,4,5,6-tetrahydro-pyrimidin-4-yl)-phenyl]amide] gave an IC50 of 370 nM. On to `CCc1ccc(C(=O)Nc2cccc([C@]3(C)CC(=O)N(C)C(N)=N3)c2)nc1` [Example 83, 5-Ethyl-pyridine-2-carboxylic acid [3-((S)-2-amino-1,4-dimethyl-6-oxo-1,4,5,6-tetrahydro-pyrimidin-4-yl)-phenyl]-amide], for which inhibition was half-maximal at 40 nM (IC50). In turn, `COc1cccnc1C(=O)Nc1cccc([C@]2(C)CC(=O)N(C)C(N)=N2)c1` [Example 65, 3-Methoxy-pyridine-2-carboxylic acid [3-((S)-2-amino-1,4-dimethyl-6-oxo-1,4,5,6-tetrahydro-pyrimidin-4-yl)-phenyl]-amide] registered an IC50 of 160 nM. `CCC[C@@]1(c2cccc(NC(=O)c3ccccn3)c2)CC(=O)N(C)C(N)=N1` [Example 88, Pyridine-2-carboxylic acid [3-((S)-2-amino-1-methyl-6-oxo-4-propyl-1,4,5,6-tetrahydro-pyrimidin-4-yl)-phenyl]-amide] registered an IC50 of 1780 nM. In turn, `CC[C@@]1(c2cccc(NC(=O)c3ncccc3Cl)c2)CC(=O)N(C)C(N)=N1` [Example 43, 3-Chloro-pyridine-2-carboxylic acid [3-((S)-2-amino-4-ethyl-1-methyl-6-oxo-1,4,5,6-tetrahydro-pyrimidin-4-yl)-phenyl]-amide] had an IC50 of 87 nM.

`CN1C(=O)C(C)(C)[C@@](C)(c2cc(NC(=O)c3ncc(C(F)(F)F)cc3Cl)ccc2F)N=C1N` [Example 118, 3-Chloro-5-trifluoromethyl-pyridine-2-carboxylic acid [3-((S)-2-amino-1,4,5,5-tetramethyl-6-oxo-1,4,5,6-tetrahydro-pyrimidin-4-yl)-4-fluoro-phenyl]amide] came in with an IC50 of 19 nM. As for `C[C@@]1(c2cccc(NC(=O)c3ccc(Cl)cn3)c2)CC(=O)N(Cc2ccccc2)C(N)=N1` [Example 50, 5-Chloro-pyridine-2-carboxylic acid [3-((S)-2-amino-1-benzyl-4-methyl-6-oxo-1,4,5,6-tetrahydro-pyrimidin-4-yl)-phenyl]amide], the IC50 came to 10 nM. For `CN1C(=O)C[C@@](C)(c2cccc(NC(=O)c3cc4cccnc4[nH]3)c2)N=C1N` [Example 78, 1H-Pyrrolo[2,3-b]pyridine-2-carboxylic acid [3-((S)-2-amino-1,4-dimethyl-6-oxo-1,4,5,6-tetrahydro-pyrimidin-4-yl)-phenyl]-amide], the IC50 came to 800 nM. With `Cc1nc(C(=O)Nc2ccc(F)c([C@@]3(C)N=C(N)N(C)C(=O)C3(C)C)c2)co1` [Example 101, 2-Methyl-oxazole-4-carboxylic acid [3-((S)-2-amino-1,4,5,5-tetramethyl-6-oxo-1,4,5,6-tetrahydro-pyrimidin-4-yl)-4-fluoro-phenyl]amide] the figure was 21 nM; with `CN1C(=O)C(C)(C)[C@@](C)(c2cc(NC(=O)c3ccc(OC(F)F)cn3)ccc2F)N=C1N` [Example 103, 5-Difluoromethoxy-pyridine-2-carboxylic acid [3-((S)-2-amino-1,4,5,5-tetramethyl-6-oxo-1,4,5,6-tetrahydro-pyrimidin-4-yl)-4-fluoro-phenyl]amide], 25 nM; with `CN1C(=O)C(C)(C)[C@@](C)(c2cc(NC(=O)c3nccn3C)ccc2F)N=C1N` [Example 111, 1-Methyl-1H-imidazole-2-carboxylic acid [3-((S)-2-amino-1,4,5,5-tetramethyl-6-oxo-1,4,5,6-tetrahydro-pyrimidin-4-yl)-4-fluoro-phenyl]amide], 190 nM.
